Patent US6541463B1, “Inhibitors of type 5 and type 3 17β-hydroxysteroid dehydrogenase and methods for their use” (Endorecherche, Inc., priority 1998, dated 2003)

Experiments:
[1] = system: Shionogi mouse mammary carcinoma cells; assay: Androgenic activity: stimulation of proliferation of Shionogi cells; assay type: cell-based
How it was run: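 Values are the percent stimulation of cell number, measured by Coulter counter, after 10–12 days of exposure to 10^−7 M or 10^−6 M compound. Androgen-sensitive Shionogi cells were seeded at 20 000 cells/well in triplicate in dextran-charcoal-treated FCS medium, refreshed every 3–4 days.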

estrogen receptor = target: T1, estrogen receptor (Rattus norvegicus, UniProt P06211); assay: Estrogen receptor (ER) assay: inhibition of [3H]E2 binding, uterine cytosol
T1 construct: from tissue; host or cells: uterine cytosol of gonadectomized female Sprague-Dawley rats
T1 sequence (P06211 1-600): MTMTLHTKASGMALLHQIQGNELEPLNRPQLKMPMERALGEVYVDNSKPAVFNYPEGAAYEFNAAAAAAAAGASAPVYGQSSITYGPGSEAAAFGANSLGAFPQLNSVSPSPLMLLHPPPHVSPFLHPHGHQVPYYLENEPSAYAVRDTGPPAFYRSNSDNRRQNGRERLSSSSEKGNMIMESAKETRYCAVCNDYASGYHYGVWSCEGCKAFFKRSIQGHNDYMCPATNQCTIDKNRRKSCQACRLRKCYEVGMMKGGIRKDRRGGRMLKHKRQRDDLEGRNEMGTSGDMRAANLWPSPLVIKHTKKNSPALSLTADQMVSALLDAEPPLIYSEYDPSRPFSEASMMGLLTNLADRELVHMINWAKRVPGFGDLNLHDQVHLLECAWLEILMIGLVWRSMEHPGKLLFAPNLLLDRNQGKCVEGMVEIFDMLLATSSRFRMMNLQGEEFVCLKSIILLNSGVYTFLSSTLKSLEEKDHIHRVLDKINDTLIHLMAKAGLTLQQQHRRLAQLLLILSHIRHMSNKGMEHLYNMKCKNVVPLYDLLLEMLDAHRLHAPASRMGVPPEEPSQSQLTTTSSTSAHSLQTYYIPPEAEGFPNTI
Experimental: Female Sprague-Dawley rats (Crl: CD(SD)Br) weighing 200-300 g were obtained from Charles-River Inc. (St-Constant, Québec, Canada). The rats were gonadectomized under general anesthesia (Isoflurane) and killed by cervical dislocation 24 hours later. The uteri were rapidly removed, dissected free from adhering tissue and frozen on dry-ice. Uteri were kept at −80° C. until assay. All subsequent steps were performed at 0-4° C. Uteri were homogenized in 10 vol (wt/vol) of buffer A (25 mM Tris-HCI, 1.5 mM EDTA disodium salt, 10 mM α-monothioglycerol, 10% glycerol, and 10 mM sodium molybdate, pH 7.4), using a Polytron PT-10 homogenizer (Brinkman Instruments, Canada) at a setting of 5 for three periods of 10 sec, with intervals of 10 sec for cooling. The homogenate was then centrifuged at 105,000×g for 60 min in a Beckman L5-65 ultracentrifuge (Fullerton, Calif.). The protein concentration of the cytosol fraction was measured according to the method of Bradford (Anal. Biochem. 72: 248-254, 1976), using bovine serum albumin as standard.
Estrogen binding was measured using the dextran-coated charcoal adsorption technique as described previously (Asselin et al., Endocrinology, 101: 666-671, 1977; Asselin and Labrie, J. Steroid Biochem., 9: 1079-1082, 1978). Briefly, [^3H]E2 solubilized in ethanol were diluted into buffer A. Aliquots of uterine cytosol preparation (0.1 ml) were incubated with 5 nM [^3H]E2 (˜200,000 cpm, 0.1 ml) in the presence or absence of the indicated concentrations of unlabeled compounds (0.1 ml, prepared in buffer A containing 10% ethanol) for 3 h at room temperature. Unbound steroids were then separated by incubation for 15 min at 0-4° C. with 0.3 ml 0.5% Norit-A and 0.05% Dextran T-70 in buffer B (1.5 mM EDTA disodium salt, 10 mM monothioglycerol, and 10 mM Tris-HCI, pH 7.4) and centrifuged at 3,000×g for 15 min. Aliquots of the supernatant (0.3 ml) were removed for radioactivity measurement.

Row | SMILES | Androgenic Activity Shionogi, Basal E^−6 ([1]; Table 4′, E^−6) [%] | Androgenic Activity Shionogi, Basal E^−7 ([1]; Table 4′, E^−7) [%] | % Inhibition Estrogen Receptor E^−6 (estrogen receptor; Table 4′, E^−6) [%] | % Inhibition Estrogen Receptor E^−8 (estrogen receptor; Table 4′, E^−8) [%] | also measured
1 | COc1ccc(CC(=O)O[C@]2(C(C)=O)CCC3C4C=C(C)C5=CC(=O)C=C[C@]5(C)C4CC[C@@]32C)cc1 (stereo partly drawn) [EM-1291] | – | – | – | – | Androgenic Activity Shionogi, Basal ([1]; E^−6): −44; Androgenic Activity Shionogi, Basal ([1]; E^−7): −8; % Inhibition Estrogen Receptor (estrogen receptor; E^−6): 0%; % Inhibition Estrogen Receptor (estrogen receptor; E^−8): 0%
2 | C[C@]12CCC(=O)C=C1C=C[C@@H]1[C@@H]2CC[C@]2(C)C(=O)C3(CC4CC4C3)C[C@@H]12 (stereo partly drawn) [EM-1299, 4,6-Androstadien-3,17-dione-16-spirobicyclo[3′.1′.0′]-hexane] | – | – | – | – | Androgenic Activity Shionogi, Basal E^−6 ([1]; E^−6): 10; Androgenic Activity Shionogi, Basal E^−7 ([1]; E^−7): 5; % Inhibition Estrogen Receptor E^−6 (estrogen receptor; E^−6): 3%; % Inhibition Estrogen Receptor E^−8 (estrogen receptor; E^−8): 3%
3 | CCS(=O)(=O)Oc1ccc2c(c1)CCC1C2CCC2(C)C1CCC21CCC(C)(C)C(=O)O1 (stereo not drawn) [EM-1364-CS] | −16 | 0 | 5 | 0 | –
4 | CC1(C)CCC2(CCC3C4CCc5cc(OS(C)(=O)=O)ccc5C4CCC32C)OC1=O (stereo not drawn) [EM-1365-CS] | −28 | 4 | 4 | 2 | –
5 | COCCOc1ccc2c(c1)CCC1C2CCC2(C)C1CCC21CCC(C)(C)C(=O)O1 [EM-1368-CS, 3-Methoxyethoxy-1,3,5(10)-estratrien-17(R)-spiro-2′-(5′,5′-dimethyl-6′-oxo)-tetrahydropyran] | −22 | 8 | 0 | 0 | –
6 | CCOc1ccc2c(c1)CCC1C2CC[C@@]2(C)C1CC[C@@]21CCC(C)(C)C(=O)O1 (stereo partly drawn) [EM-1369, 3-Ethoxy-1,3,5(10)-estratrien-17(R)-spiro-2′-(5′,5′-dimethyl-6′-oxo)-tetrahydropyran] | 0 | 0 | 0 | 2 | –
7 | COc1ccc2c(c1)CCC1C2CCC2(C)C1CCC21CCC(C)(C)C(=O)O1 (stereo not drawn) [EM-1370] | −11 | 12 | 2 | 0 | –
8 | COCCOc1cc2c(cc1Cl)C1CCC3(C)C(CCC34CCC(C)(C)C(=O)O4)C1CC2 (stereo not drawn) [EM-1371-CS] | 92 | 58 | 1 | 2 | –
9 | CC1(C)CC[C@@]2(CC[C@H]3[C@@H]4CCc5c(cc(Br)c(O)c5Br)[C@H]4CC[C@@]32C)OC1=O [EM-1382-CS] | 0 | 0 | 3 | 0 | –
10 | COc1c(Br)cc2c(c1Br)CCC1C2CCC2(C)C1CCC21CCC(C)(C)C(=O)O1 (stereo not drawn) [EM-1385-CS] | −28 | −11 | 4 | 2 | –
11 | COc1ccc2c(c1)C(=O)CC1C3CCC4(CCC(C)(C)C(=O)O4)C3(C)CCC21O (stereo not drawn) [EM-1386] | −17 | 5 | 0 | 3 | –
12 | CN(C)CCOc1ccc2c(c1)CCC1C2CCC2(C)C1CCC21CCC(C)(C)C(=O)O1 (stereo not drawn) [EM-1389-CS] | −41 | 0 | 0 | 0 | –
13 | CC1(C)CCC2(CCC3C4CCc5cc(OCCN6CCCCC6)ccc5C4CCC32C)OC1=O [EM-1390-CS, 3-(N-piperidyl-ethyl)-1,3,5(10)-estratrien-17(R)-spiro-2′-(5′,5′-dimethyl-6′-oxo)-tetrahydropyran] | −43 | −18 | 0 | 0 | –
14 | CC1(C)CCC2(CCC3C4CCc5c(cc(Cl)c(O)c5Cl)C4CCC32C)OC1=O (stereo not drawn) [EM-1391-CS] | −13 | 0 | 0 | 0 | –
15 | CC1(C)CCC2(CCC3C4CCc5c(cc(Cl)c(OS(C)(=O)=O)c5Cl)C4CCC32C)OC1=O (stereo not drawn) [EM-1392-CS] | −35 | 7 | 0 | 0 | –
16 | COc1ccc2c(c1)C(=O)CC1C2CC[C@@]2(C)C1CC[C@@]21CCC(C)(C)C(=O)O1 (stereo partly drawn) [EM-1394] | −12 | 4 | 8 | 4 | –
17 | COCCOc1cc2c(cc1C#N)C1CC[C@@]3(C)C(CC[C@@]34CCC(C)(C)C(=O)O4)C1CC2 (stereo partly drawn) [EM-1396] | −15 | 0 | 2 | 3 | –
18 | CC1(C)CC[C@@]2(CCC3C4CCc5cc(C(=O)O)ccc5C4CC[C@@]32C)OC1=O (stereo partly drawn) [EM-1401, 3-Carboxy-1,3,5(10)-estratrien-17(R)-spiro-2′-(5′,5′-dimethyl-6′-oxo)tetrahydropyran] | 0 | 2 | 2 | 5 | –
19 | COCCOc1cc2c(cc1C(=O)OC)C1CC[C@@]3(C)C(CC[C@@]34CCC(C)(C)C(=O)O4)C1CC2 (stereo partly drawn) [EM-1402-CS, 2-Carbomethoxy-3-(2″-methoxyethyloxy)-1,3,5(10)-estratrien 17(R)-spiro-2′-(5′,5′-dimethyl-6′-oxo)tetrahydropyran] | −9 | 0 | 0 | 1 | –
20 | CN(C)C(=O)c1ccc2c(c1)CCC1C2CCC2(C)C1CCC21CCC(C)(C)C(=O)O1 (stereo not drawn) [EM-1403] | 0 | 19 | 0 | 0 | –
21 | CC1(C)CC[C@@]2(CCC3C4CCc5cc(C(N)=O)ccc5C4CCC32C)OC1=O (stereo partly drawn) [EM-1404] | 0 | 0 | 0 | 0 | –
22 | COCCOc1cc2c(cc1C(=O)O)C1CCC3(C)C(CCC34CCC(C)(C)C(=O)O4)C1CC2 [EM-1405, 2-Carboxy-3-(2″-methoxyethyloxy)-1,3,5(10)-estratrien-17(R)-spiro-2′-(5′,5′-dimethyl-6′-oxo)tetrahydropyran] | 0 | 0 | 0 | 0 | –
23 | CC1(C)CC[C@@]2(CCC3C4CCc5cc6oncc6cc5C4CC[C@@]32C)OC1=O (stereo partly drawn) [EM-1407-CS, 1,3,5(10)-estratrien-(2,3-oximino)-17(R)-spiro-2′-(5′,5′-dimethyl-6′-oxo)tetrahydropyran] | −23 | 0 | 0 | 2 | –
24 | COCCOc1ccc2c(c1)C(=O)CC1C2CCC2(C)C1CCC21CCC(C)(C)C(=O)O1 (stereo not drawn) [EM-1408-CS] | −12 | 0 | 6 | 0 | –
